Assay [1] has as its target T1, Transient receptor potential cation channel subfamily A member 1 (Rattus norvegicus, UniProt Q6RI86). The assay is described as follows: Antagonist activity at rat TRPA1 expressed in HEK293 cells assessed as inhibition of allyl isothiocyanate-induced increase of intracellular calcium level. It counts as cell-based. A general note: Calcium assays in cells follow changes in intracellular calcium, usually with a dye or a luminescent sensor.

Assay [2] addresses T1, Transient receptor potential cation channel subfamily A member 1. Nature of the assay: Agonist activity at rat TRPA1 expressed in HEK293 cells assessed as induction of intracellular calcium level. It counts as cell-based.
Assay [3] has as its target Transient receptor potential cation channel subfamily A member 1 (Rattus norvegicus) (UniProt Q6RI86). The assay is described as follows: Agonist activity at rat TRPA1 expressed in HEK293 cells assessed as induction of intracellular calcium level relative to allyl isothiocyanate. It counts as cell-based.
Assay [4] deals with T2, Transient receptor potential cation channel subfamily V member 1 (Homo sapiens, UniProt Q8NER1). Nature of the assay: Agonist activity at human TRPV1 expressed in HEK293 cells assessed as induction of intracellular calcium level relative to […]. The assay is classed as cell-based.
For assay [5], the target named is T2, Transient receptor potential cation channel subfamily V member 1. Nature of the assay: Antagonist activity at human TRPV1 expressed in HEK293 cells assessed as inhibition of […]-induced increase of intracellular calcium level. It counts as cell-based.
Assay [6] shares this target. Nature of the assay: Antagonist activity at human TRPV1 expressed in HEK293 cells. It counts as cell-based.
For assay [7] the target is unchanged. The assay is described as follows: Antagonist activity at TRPV1 (unknown origin) in DRG neurons.
For assay [8] the target is unchanged. The assay is described as follows: Antagonist activity at human TRPV1 expressed in HEK293 cells assessed as inhibition of capsaicin-induced increase of intracellular calcium level. It counts as cell-based.
Assay [9] addresses T1, Transient receptor potential cation channel subfamily A member 1. Nature of the assay: Agonist activity at rat TRPA1 expressed in HEK293 cells assessed as induction of intracellular calcium level in presence of AITC. The assay is classed as cell-based.
For assay [10] the target is unchanged. The assay is described as follows: Antagonist activity at rat TRPA1 expressed in HEK293 cells assessed as inhibition of AITC-induced increase of intracellular calcium level. The assay is classed as cell-based.
Assay [11] concerns the target Transient receptor potential cation channel subfamily A member 1 (Homo sapiens, UniProt O75762). Nature of the assay: Antagonist activity at human TRPA1 expressed in HEK293 cells assessed as inhibition of allyl isothiocyanate-induced increase of intracellular calcium level. It counts as cell-based.

The structures appear in SMILES notation. Some results are limits rather than exact numbers.

Sequence of Transient receptor potential cation channel subfamily A member 1 (Rattus norvegicus) (Q6RI86 whole entry): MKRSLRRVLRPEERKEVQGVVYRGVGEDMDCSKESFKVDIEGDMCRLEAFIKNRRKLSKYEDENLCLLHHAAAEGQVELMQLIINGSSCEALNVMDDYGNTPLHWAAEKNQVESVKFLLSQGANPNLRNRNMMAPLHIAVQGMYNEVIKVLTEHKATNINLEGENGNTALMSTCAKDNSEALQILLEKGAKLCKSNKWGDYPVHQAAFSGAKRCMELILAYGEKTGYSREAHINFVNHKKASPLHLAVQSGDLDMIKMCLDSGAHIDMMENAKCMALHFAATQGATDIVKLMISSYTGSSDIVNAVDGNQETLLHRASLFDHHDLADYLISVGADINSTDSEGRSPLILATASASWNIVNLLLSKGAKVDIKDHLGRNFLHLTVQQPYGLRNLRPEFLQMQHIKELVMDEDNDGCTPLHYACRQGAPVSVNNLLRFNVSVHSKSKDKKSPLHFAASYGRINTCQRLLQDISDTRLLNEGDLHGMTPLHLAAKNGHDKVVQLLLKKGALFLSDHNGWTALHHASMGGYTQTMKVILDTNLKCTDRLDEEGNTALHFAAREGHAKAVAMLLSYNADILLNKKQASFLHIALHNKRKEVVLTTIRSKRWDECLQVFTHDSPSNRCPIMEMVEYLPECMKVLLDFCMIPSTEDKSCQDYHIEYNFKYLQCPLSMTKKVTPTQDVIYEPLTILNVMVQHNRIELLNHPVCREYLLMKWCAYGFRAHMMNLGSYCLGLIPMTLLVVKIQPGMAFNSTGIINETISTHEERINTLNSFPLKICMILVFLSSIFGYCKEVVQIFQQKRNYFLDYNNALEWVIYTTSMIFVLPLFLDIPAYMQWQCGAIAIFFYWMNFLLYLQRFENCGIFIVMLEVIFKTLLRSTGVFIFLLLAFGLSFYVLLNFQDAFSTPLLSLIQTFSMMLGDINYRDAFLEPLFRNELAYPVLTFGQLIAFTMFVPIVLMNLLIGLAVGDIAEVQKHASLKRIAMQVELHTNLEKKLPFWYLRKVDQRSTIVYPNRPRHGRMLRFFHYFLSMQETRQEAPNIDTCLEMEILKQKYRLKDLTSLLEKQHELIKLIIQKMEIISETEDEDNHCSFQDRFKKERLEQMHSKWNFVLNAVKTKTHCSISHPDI
T1 sequence (Q6RI86 whole entry): as above
T2 sequence (Q8NER1 whole entry): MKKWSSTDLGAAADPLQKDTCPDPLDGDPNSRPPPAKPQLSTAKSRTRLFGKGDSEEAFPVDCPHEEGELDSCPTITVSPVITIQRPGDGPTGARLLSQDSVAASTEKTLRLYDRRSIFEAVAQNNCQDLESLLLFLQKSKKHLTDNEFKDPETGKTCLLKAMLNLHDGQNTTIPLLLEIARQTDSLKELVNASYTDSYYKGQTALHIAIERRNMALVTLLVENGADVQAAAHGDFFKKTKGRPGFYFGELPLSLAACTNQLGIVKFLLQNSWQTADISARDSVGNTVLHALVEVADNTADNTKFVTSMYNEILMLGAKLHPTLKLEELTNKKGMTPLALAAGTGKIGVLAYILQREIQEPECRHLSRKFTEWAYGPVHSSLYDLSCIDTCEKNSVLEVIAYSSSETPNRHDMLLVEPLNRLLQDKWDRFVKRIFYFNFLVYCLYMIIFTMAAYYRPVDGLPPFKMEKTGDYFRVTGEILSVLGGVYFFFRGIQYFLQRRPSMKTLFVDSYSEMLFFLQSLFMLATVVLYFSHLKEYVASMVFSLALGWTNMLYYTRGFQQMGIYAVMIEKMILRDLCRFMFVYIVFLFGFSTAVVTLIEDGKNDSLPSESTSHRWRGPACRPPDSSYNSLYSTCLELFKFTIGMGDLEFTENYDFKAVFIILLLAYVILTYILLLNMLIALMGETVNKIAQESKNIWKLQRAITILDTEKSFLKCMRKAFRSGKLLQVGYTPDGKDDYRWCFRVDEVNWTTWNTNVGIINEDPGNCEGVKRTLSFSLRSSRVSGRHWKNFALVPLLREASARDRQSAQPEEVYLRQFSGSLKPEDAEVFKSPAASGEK
Sequence of Transient receptor potential cation channel subfamily A member 1 (Homo sapiens, UniProt O75762) (O75762 whole entry): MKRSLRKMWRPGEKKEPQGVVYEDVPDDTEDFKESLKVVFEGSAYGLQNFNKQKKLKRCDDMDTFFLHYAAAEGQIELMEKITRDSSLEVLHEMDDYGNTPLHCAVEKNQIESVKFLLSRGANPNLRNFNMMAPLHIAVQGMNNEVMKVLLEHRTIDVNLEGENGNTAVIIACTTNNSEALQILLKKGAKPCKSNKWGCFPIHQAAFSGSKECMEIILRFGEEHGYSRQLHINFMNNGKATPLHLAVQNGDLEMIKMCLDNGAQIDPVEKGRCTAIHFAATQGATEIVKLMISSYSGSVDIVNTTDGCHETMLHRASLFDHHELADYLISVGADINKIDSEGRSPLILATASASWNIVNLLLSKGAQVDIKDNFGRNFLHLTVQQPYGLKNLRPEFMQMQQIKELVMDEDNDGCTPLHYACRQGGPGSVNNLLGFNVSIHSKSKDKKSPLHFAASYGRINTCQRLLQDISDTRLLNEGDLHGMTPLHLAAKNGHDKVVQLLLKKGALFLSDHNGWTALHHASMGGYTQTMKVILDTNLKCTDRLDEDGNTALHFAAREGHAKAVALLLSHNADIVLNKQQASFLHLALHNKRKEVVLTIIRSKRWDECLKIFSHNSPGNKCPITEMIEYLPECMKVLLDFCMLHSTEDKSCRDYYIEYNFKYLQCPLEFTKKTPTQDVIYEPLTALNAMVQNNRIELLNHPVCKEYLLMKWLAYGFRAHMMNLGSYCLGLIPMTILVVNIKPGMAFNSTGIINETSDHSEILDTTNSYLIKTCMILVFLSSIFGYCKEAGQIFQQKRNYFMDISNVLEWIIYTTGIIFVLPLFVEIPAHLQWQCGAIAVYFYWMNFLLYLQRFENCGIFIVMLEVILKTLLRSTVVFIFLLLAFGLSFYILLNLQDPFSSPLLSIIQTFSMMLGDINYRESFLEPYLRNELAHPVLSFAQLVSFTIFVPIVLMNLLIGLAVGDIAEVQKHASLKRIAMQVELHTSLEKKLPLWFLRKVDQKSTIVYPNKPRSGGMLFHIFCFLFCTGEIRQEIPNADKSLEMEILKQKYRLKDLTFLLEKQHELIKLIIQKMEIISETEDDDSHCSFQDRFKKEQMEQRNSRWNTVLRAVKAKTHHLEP

Usually IC50 stands for the point on the concentration scale where inhibition reaches its midpoint. A word on the EC50: it is the concentration that produces a half-maximal response. For `COc1cccc(/C=C/c2ccccc2)c1`, the values for the IC50 in assay [1] and in assay [5] were 2.3 µM and more than 10 µM, respectively. Also, in assay [2], the EC50 is 1.7 µM. The Efficacy was 101% in assay [3] and less than 10% in assay [4].
For `COc1cc(/C=C/c2ccc(O)cc2)cc(OC)c1` [PTEROSTILBENE], in that order: 7.5 µM, more than 10 µM, 3.6 µM, 71.1% and less than 10%.
Consider `COc1cc(O)cc(/C=C/c2ccccc2)c1` [PINOSYLVIN METHYL ETHER], for which the IC50 in assay [6] is 15 µM; in [7], 30 µM; in [8], 23.7 µM; in [1], 6.9 µM; in [5], more than 10 µM. In addition, in [2], the EC50 is 3.5 µM. Also, the Efficacy is 71.4% in assay [3] and less than 10% in [4].
`CC(=O)Oc1ccc(/C=C/c2cc(OC(C)=O)cc(OC(C)=O)c2)cc1` [TRIACETYLRESVERATROL]: the IC50 in assay [1] was 11.8 µM; in assay [5] it was more than 10 µM. Also, in assay [2], the EC50 was found to be 7.5 µM. The Efficacy in [3] was 127%; in assay [4], less than 10%.
For `Oc1ccc(/C=C/c2cccc(O)c2)cc1` [(E)-3,4'-STILBENDIOL], in that order: 16.5 µM, more than 10 µM, 13.5 µM, 73.4% and less than 10%.
For `Oc1ccc(/C=C/c2ccc(O)cc2)cc1` [TRANS-4,4'-DIHYDROXYSTILBENE], in that order: 25.2 µM, more than 10 µM, 11 µM, 40% and less than 10%.
For `Oc1ccccc1/C=C/c1ccccc1`, in that order: 2.2 µM, more than 10 µM, 0.58 µM, 88.4% and less than 10%.
As to `Oc1ccc(/C=C/c2cc(O)cc(O)c2)cc1` [RESVERATROL], the IC50 in assay [9] was 2.74 µM; in [10] it was 0.75 µM; in [1], 19.9 µM. Moreover, the Efficacy in assay [3] is less than 10%.
As to `COc1ccc(/C=C/c2cccc(OC)c2)cc1`, the IC50 is 2.9 µM in [1] and more than 10 µM in assay [5]. The EC50 in assay [2] came to 1.5 µM. Moreover, the Efficacy in assay [3] is 75%; in assay [4], less than 10%.
The matching figures for `COc1ccc(/C=C/c2ccc(OC)cc2)cc1`: 10.6 µM, more than 10 µM, 4.2 µM, 86.7% and less than 10%.
For `COc1cccc(/C=C/c2ccc(O)cc2)c1` [(E)-5-METHOXY-4'-STILBENOL], in that order: 10.1 µM, more than 10 µM, 6.6 µM, 41.8% and less than 10%.
The matching figures for `COc1ccc(/C=C/c2ccc(O)cc2)cc1`: 10 µM, more than 10 µM, 10.1 µM, 72.1% and less than 10%.
Regarding `Oc1ccc(/C=C/c2ccccc2)cc1` [(E)-4-STYRYLPHENOL], the IC50 was 5.5 µM in assay [1] and more than 10 µM in assay [5]. Besides, the EC50 in [2] came out at 8.4 µM. In addition, the Efficacy in [3] is 61.9%; in [4], less than 10%.
On to `CC(=O)Oc1ccc(/C=C/c2ccccc2)cc1`, for which the IC50 is 29.4 µM in assay [1] and more than 10 µM in assay [5]. The EC50 in assay [2] is 16.3 µM. Moreover, the Efficacy was 89.7% in [3] and less than 10% in assay [4].
With `COc1ccc(/C=C/c2ccccc2)cc1`, the IC50 in assay [11] is 12.1 µM; in [1], 17.8 µM; in [5], more than 10 µM. The EC50 in assay [2] was 2.4 µM. For the same compound, the values for the Efficacy in assay [3] and in assay [4] were 49% and less than 10%, respectively.
`COc1ccc(/C=C/c2cc(OC)cc(OC)c2)cc1` [TRISMETHOXYRESVERATROL]: the values for the half-maximal inhibitory concentration (IC50) in assay [1] and in assay [5] were 3 µM and more than 10 µM, respectively. In addition, in [2], the EC50 stood at 1.7 µM. For the same compound, the Efficacy was 72.5% in assay [3] and less than 10% in [4].
For `Oc1cccc(/C=C/c2ccccc2)c1` [(E)-3-STILBENOL], in that order: 3.4 µM, more than 10 µM, 1.8 µM, 77.4% and less than 10%.
For `CC(=O)Oc1ccccc1/C=C/c1ccccc1`, in that order: 8.6 µM, more than 10 µM, 7.2 µM, 135% and less than 10%.
For `COc1cc(/C=C/c2ccccc2)cc(OC)c1` [3,5-O-DIMETHYLPINOSYLVIN], in that order: 3.4 µM, more than 10 µM, 1.7 µM, 84.1% and less than 10%.
As to `COc1ccccc1/C=C/c1ccccc1`, the IC50 is 1.7 µM in assay [1] and more than 10 µM in assay [5]. Besides, the EC50 in assay [2] stood at 0.88 µM. Moreover, the Efficacy is 83.4% in [3] and less than 10% in assay [4].
Take `Oc1cc(O)cc(/C=C/c2ccccc2)c1` [PINOSYLVIN]: the IC50 was 12.1 µM in assay [1] and more than 10 µM in [5]. The Efficacy in assay [3] and in assay [4] was less than 10% throughout.

The record behind these values is ChEMBL document CHEMBL3751759, “TRPA1 channels as targets for resveratrol and related stilbenoids” (Bioorg Med Chem Lett, 2016).
